Experiment [1] concerns the target T1, human LXR beta (Homo sapiens, UniProt P55055).
T1 construct: human LXR beta (aa 155 to 460); made in house; host or cells: E. coli BL21(pLysS)
T1 sequence (P55055 155-460): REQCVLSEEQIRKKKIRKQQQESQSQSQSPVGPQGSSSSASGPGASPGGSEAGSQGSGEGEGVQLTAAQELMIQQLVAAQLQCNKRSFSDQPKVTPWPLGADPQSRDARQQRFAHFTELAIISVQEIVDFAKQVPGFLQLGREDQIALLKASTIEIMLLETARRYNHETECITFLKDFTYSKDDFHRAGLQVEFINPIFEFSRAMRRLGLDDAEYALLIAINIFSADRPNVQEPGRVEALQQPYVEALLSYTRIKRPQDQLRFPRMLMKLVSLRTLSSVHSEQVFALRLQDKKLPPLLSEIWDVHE
Put plainly: Radioligand binding assay (scintillation proximity), LXR beta. Conditions: GST-LXR beta-LBD on SPA beads, radioligand displacement; read-out: LXRbeta Binding IC50. An excerpt: (§1) Mammalian expression vectors were constructed to express full-length human LXR alpha and LXR beta. Bacterial expression vectors were constructed to produce glutathione-s-transferase (GST) fused to the ligand binding domains (LBD) of human LXR alpha (aa 164 to 447) and human LXR beta (aa 155 to 460). To accomplish this, the portions of the sequences encoding the LBDs were amplified from full-length clones by PCR and then subcloned into the plasmid vectors. Final clones were verified by DNA sequence analysis (Willy et al., Genes Dev. 1995, 9:1033-45; Song et al., Proc Natl Acad Sci USA. 1994, 91:10809-13).
(§2) Induction, expression, and purification of GST-LBD fusion proteins were performed in E. coli strain BL21(pLysS) cells by standard methods (Ref: Current Protocols in Molecular Biology, Wiley Press, edited by Ausubel et al).
(§3) LXR alpha and LXR beta receptor binding were assayed in buffer consisting of 50 mM HEPES, pH 7.4, 10 mM NaCl, 5 mM MgCl2. For each 96-well reaction, 500 ng of GST-LXR alpha-LBD or 700 ng of GST-LXR beta-LBD fusion proteins were bound to 80 μg or 40 μg SPA beads (Pharmacia Amersham) respectively, in a final volume of 50 μl by shaking. The resulting slurry was incubated for 1 h at RT and centrifuged for 2 min at 1300×g. The supernatant containing unbound protein was removed, and the semi-dry pellet containing the receptor-coated beads was re-suspended in 50 μl of buffer. Radioligand (eg. 100,000 dpm of (N-(2,2,2-trifluoroethyl)-N-[4-(2,2,2-trifluoro-1-hydroxy-1-trifluoromethylethyl)-phenyl]-benzenesulfonamide)) was added, and the reaction incubated at RT for 1 h in the presence of test compounds, and then scintillation proximity counting was performed. All binding assays were performed in 96-well plates and the amount of bound ligand was measured on a Packard TopCount using OptiPlates (Packard). Dose response curves were measured within a range of concentration from 10^−10 M to 10^−4 M.
For orientation: SPA uses beads or plates that emit light when radiolabelled molecules are held near them.

Experiment [2] concerns the target T2, human LXR alpha (Homo sapiens, UniProt Q13133).
T2 construct: human LXR alpha (aa 164 to 447); made in house; host or cells: E. coli BL21(pLysS)
T2 sequence (Q13133 164-447): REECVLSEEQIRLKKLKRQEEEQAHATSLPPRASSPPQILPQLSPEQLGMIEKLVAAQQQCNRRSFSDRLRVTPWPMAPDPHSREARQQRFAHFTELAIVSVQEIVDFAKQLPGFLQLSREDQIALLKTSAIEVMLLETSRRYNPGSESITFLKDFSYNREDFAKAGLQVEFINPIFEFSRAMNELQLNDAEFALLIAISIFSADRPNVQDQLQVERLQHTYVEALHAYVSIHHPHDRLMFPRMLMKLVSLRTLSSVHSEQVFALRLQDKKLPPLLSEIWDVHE
Put plainly: Radioligand binding assay (scintillation proximity), LXR alpha. To be noted: GST-LXR alpha-LBD on SPA beads, radioligand displacement; read-out: LXRalpha Binding IC50.
Text: as §1, §2, §3

A word on the IC50: it is the concentration that inhibits the measured activity by half.

With `COC(=O)c1ccc(OC(COc2ccc(C(O)(C(F)(F)F)C(F)(F)F)cc2)c2ccccc2)cc1` (racemic) [Example 11, rac 4-{1-Phenyl-2-[4-(2,2,2-trifluoro-1-hydroxy-1-trifluoromethyl-ethyl)-phenoxy]-ethoxy}-benzoic acid methyl ester], the results for the IC50 in experiment [1] and in experiment [2] were 0.014 µM and 0.093 µM, respectively.
`OC(c1ccc(OCc2ccccc2)c(Cl)c1)(C(F)(F)F)C(F)(F)F` [Example 13, 2-(4-Benzyloxy-3-chloro-phenyl)-1,1,1,3,3,3-hexafluoro-propan-2-ol]: the values for the IC50 in experiment [1] and in experiment [2] were 0.236 µM and 0.237 µM, respectively.
`Cc1oc(-c2cccc(Cl)c2)nc1COc1ccc(C(O)(C(F)(F)F)C(F)(F)F)cc1Cl` [Example 57, 2-{3-Chloro-4-[2-(3-chloro-phenyl)-5-methyl-oxazol-4-ylmethoxy]-phenyl}-1,1,1,3,3,3-hexafluoro-propan-2-ol]: the IC50 in experiment [1] amounted to 0.0227 µM; in experiment [2] it was 0.033 µM.
